Data taken from patent publication US10995091B2 (Proximagen, LLC, priority 2010, dated 2021).

Molecular target: T1, Human CXCR4 transfected HEK293 cells (Homo sapiens, UniProt P61073)
T1 construct: expressed in transfected cells; host or cells: HEK293
Assay: CXCR4 functional calcium assay (calcium flux FLIPR, antagonism of SDF1 response)
Format: cell-based
Conditions: CXCR4 functional activity, antagonism of SDF1 (EC50 concentration), read-out: CXCR4 fKi
Method in brief: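 HEK293 cells stably transfected with human CXCR4 were loaded with 2 μM Fluo-4 AM in HBSS containing 2.5 mM probenecid, 0.1% BSA and 10 mM HEPES at pH 7.4 and 37° C. Compound was added first, then SDF1 at its EC50 concentration, and intracellular calcium fluorescence was followed on a FLIPR. Antagonist dose-response curves were fitted.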

T1 sequence (P61073 whole entry): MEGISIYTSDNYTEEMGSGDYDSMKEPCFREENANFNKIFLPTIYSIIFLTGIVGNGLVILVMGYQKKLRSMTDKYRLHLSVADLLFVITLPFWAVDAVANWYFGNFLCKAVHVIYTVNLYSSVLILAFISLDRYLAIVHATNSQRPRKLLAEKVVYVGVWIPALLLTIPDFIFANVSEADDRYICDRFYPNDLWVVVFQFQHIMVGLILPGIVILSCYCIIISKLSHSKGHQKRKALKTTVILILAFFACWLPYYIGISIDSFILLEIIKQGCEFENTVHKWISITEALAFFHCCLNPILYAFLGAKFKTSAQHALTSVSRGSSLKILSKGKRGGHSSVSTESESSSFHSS

| SMILES | Ki |
| --- | --- |
| CC(C)(C)N1CCC(N2CCCN(c3cccc(C(=O)Nc4ccncc4)n3)CC2)CC1 [Example 80, 6-[4-(1-tert-Butylpiperidin-4-yl)-1,4-diazepan-1-yl]-N-(pyridine-4-yl)pyridine-2-carboxamide] | < 20 nM |
| C[C@@H](N1CCC(N2CCCN(c3cccc(C(=O)Nc4ccncc4)n3)CC2)CC1)C(F)(F)F [Example 81, N-(Pyridin-4-yl)-6-(4-{1-[(2R)-1,1,1-trifluoropropan-2-yl]piperidin-4-yl}-1,4-diazepan-1-yl)pyridine-2-carboxamide] | < 20 nM |
| C[C@H](N1CCC(N2CCCN(c3cccc(C(=O)Nc4ccncc4)n3)CC2)CC1)C(F)(F)F [Example 82, N-(Pyridin-4-yl)-6-(4-{1-[(2S)-1,1,1-trifluoropropan-2-yl]piperidin-4-yl}-1,4-diazepan-1-yl)pyridine-2-carboxamide] | < 20 nM |
| O=C(Nc1ccncc1)c1cccc(N2CCCN(C3CCN(C4CCCC4)CC3)CC2)n1 [Example 83, 6-[4-(1-Cyclopentylpiperidin-4-yl)-1,4-diazepan-1-yl]-N-(pyridine-4-yl)pyridine-2-carboxamide] | < 20 nM |
| Cc1cc(NC(=O)c2cccc(N3CCCN(C4CCN(Cc5ccccc5Cl)CC4)CC3)n2)ccn1 [Example 84, 6-(4-{1-[(2-Chlorophenyl)methyl]piperidin-4-yl}-1,4-diazepan-1-yl)-N-(2-methylpyridine-4-yl)pyridine-2-carboxamide] | < 20 nM |
| Cc1cc(NC(=O)c2cccc(N3CCCN(C4CCN(Cc5ccccc5Cl)CC4)CC3)n2)cc(C)n1 [Example 85, 6-(4-{1-[(2-Chlorophenyl)methyl]piperidin-4-yl}-1,4-diazepan-1-yl)-N-(2,6-dimethylpyridin-4-yl)pyridine-2-carboxamide] | 20 to 100 nM |
| Cc1cc(NC(=O)c2cccc(N3CCCN(C4CCN(C(C)C)CC4)CC3)n2)ccn1 [Example 86, N-(2-Methylpyridin-4-yl)-6-{4-[1-(propan-2-yl)piperidin-4-yl]-1,4-diazepan-1-yl}pyridine-2-carboxamide] | < 20 nM |
| Cc1cc(NC(=O)c2cccc(N3CCCN(C4CCN(C(C)C)CC4)CC3)n2)cc(C)n1 [Example 87, N-(2,6-Dimethylpyridin-4-yl)-6-{4-[1-(propan-2-yl)piperidin-4-yl]-1,4-diazepan-1-yl}pyridine-2-carboxamide] | < 20 nM |
| Cc1cnccc1NC(=O)c1cccc(N2CCCN(C3CCN(C(C)C)CC3)CC2)n1 [Example 88, N-(3-Methylpyridin-4-yl)-6-{4-[1-(propan-2-yl)piperidin-4-yl]-1,4-diazepan-1-yl}pyridine-2-carboxamide] | < 20 nM |
| C[C@H](N1CCC(N2CCCN(c3cccc(C(=O)NCc4cccnc4)n3)CC2)CC1)C(F)(F)F [Example 89, N-(Pyridin-3-ylmethyl)-6-(4-{1-[(2S)-1,1,1-trifluoropropan-2-yl]piperidin-4-yl}-1,4-diazepan-1-yl)pyridine-2-carboxamide] | 20 to 100 nM |
| CC(CC(F)(F)F)N1CCC(N2CCCN(c3cccc(C(=O)NCc4cccnc4)n3)CC2)CC1 (stereo not shown) [Example 90, N-(Pyridin-3-ylmethyl)-6-{4-[1-(4,4,4-trifluorobutan-2-yl)piperidin-4-yl]-1,4-diazepan-1-yl}pyridine-2-carboxamide] | 20 to 100 nM |
| CC(C)(N1CCC(N2CCCN(c3cccc(C(=O)NCc4cccnc4)n3)CC2)CC1)C(F)(F)F [Example 91, N-(Pyridin-3-ylmethyl)-6-{4-[1-(1,1,1-trifluoro-2-methylpropan-2-yl)piperidin-4-yl]-1,4-diazepan-1-yl}pyridine-2-carboxamide] | 100 to 500 nM |
| C[C@H](c1ccccc1)N1CCC(N2CCCN(c3cccc(C(=O)NCc4cccnc4)n3)CC2)CC1 [Example 92, 6-(4-{1-[(1R)-1-Phenylethyl]piperidin-4-yl}-1,4-diazepan-1-yl)-N-(pyridine-3-ylmethyl)pyridine-2-carboxamide] | 20 to 100 nM |
| CCCCNC(=O)c1cccc(N2CCCN(C3CCN([C@@H](C)C(F)(F)F)CC3)CC2)n1 [Example 93, N-Butyl-6-(4-{1-[(2S)-1,1,1-trifluoropropan-2-yl]piperidin-4-yl}-1,4-diazepan-1-yl)pyridine-2-carboxamide] | 20 to 100 nM |
| C[C@H](N1CCC(N2CCCN(c3cccc(C(=O)NCc4nccs4)n3)CC2)CC1)C(F)(F)F [Example 94, N-(1,3-Thiazol-2-ylmethyl)-6-(4-{1-[(2S)-1,1,1-trifluoropropan-2-yl]piperidin-4-yl}-1,4-diazepan-1-yl)pyridine-2-carboxamide] | 100 to 500 nM |
| CC(C)N1CCC(N2CCCN(c3cccc(-c4cc5ccccc5n4C)n3)CC2)CC1 [Example 95, 1-Methyl-2-(6-{4-[1-(propan-2-yl)piperidin-4-yl]-1,4-diazepan-1-yl}pyridine-2-yl)-1H-indole] | 100 to 500 nM |
| CC(C)N1CCC(N2CCCN(c3cccc(-c4cc5ncccc5[nH]4)n3)CC2)CC1 [Example 96, 1-[1-(Propan-2-yl)piperidin-4-yl]-4-(6-{1H-pyrrolo[3,2-b]pyridine-2-yl}pyridine-2-yl)-1,4-diazepane] | 20 to 100 nM |
| CC(C)N1CCC(N2CCCN(c3cccc(-c4cc5cnccc5[nH]4)n3)CC2)CC1 [Example 97, 1-[1-(Propan-2-yl)piperidin-4-yl]-4-(6-{1H-pyrrolo[3,2-c]pyridine-2-yl}pyridine-2-yl)-1,4-diazepane] | 100 to 500 nM |
| CC(C)N1CCC(N2CCCN(c3cccc(-c4cc5ccncc5[nH]4)n3)CC2)CC1 [Example 98, 1-[1-(Propan-2-yl)piperidin-4-yl]-4-(6-{1H-pyrrolo[2,3-c]pyridine-2-yl}pyridine-2-yl)-1,4-diazepane] | 20 to 100 nM |
| CC(C)N1CCC(N2CCCN(c3cccc(-c4cc5cccnc5[nH]4)n3)CC2)CC1 [Example 99, 1-[1-(Propan-2-yl)piperidin-4-yl]-4-(6-{1H-pyrrolo[2,3-b]pyridine-2-yl}pyridine-2-yl)-1,4-diazepane] | 20 to 100 nM |
| CC(C)N1CCC(N2CCCN(c3cccc(-c4cc5ccccc5[nH]4)n3)CC2)CC1 [Example 100, 2-(6-{4-[1-(Propan-2-yl)piperidin-4-yl]-1,4-diazepan-1-yl}pyridine-2-yl)-1H-indole] | 20 to 100 nM |
| CC(C)N1CCC(N2CCCN(c3cccc(-c4c[nH]c5ncccc45)n3)CC2)CC1 [Example 101, 1-[1-(Propan-2-yl)piperidin-4-yl]-4-(6-{1H-pyrrolo[2,3-b]pyridine-3-yl}pyridine-2-yl)-1,4-diazepane] | 100 to 500 nM |
| CC(C)N1CCC(N2CCCN(c3cccc(-c4c[nH]c5ccccc45)n3)CC2)CC1 [Example 102, 3-(6-{4-[1-(Propan-2-yl)piperidin-4-yl]-1,4-diazepan-1-yl}pyridine-2-yl)-1H-indole] | 500 to 1000 nM |
| CC(C)N1CCC(N2CCCN(c3cccc(-c4cc5ccc(C#N)cc5[nH]4)n3)CC2)CC1 [Example 103, 2-(6-{4-[1-(Propan-2-yl)piperidin-4-yl]-1,4-diazepan-1-yl}pyridine-2-yl)-1H-indole-6-carbonitrile] | 100 to 500 nM |
| COc1ccc2cc(-c3cccc(N4CCCN(C5CCN(C(C)C)CC5)CC4)n3)[nH]c2c1 [Example 104, 6-Methoxy-2-(6-{4-[1-(propan-2-yl)piperidin-4-yl]-1,4-diazepan-1-yl}pyridine-2-yl)-1H-indole] | 500 to 1000 nM |
